Reference: patent US20100272717A1, “COMBINATIONS OF THERAPEUTIC AGENTS FOR TREATING CANCER” (NOVARTIS AG, priority 2007, published 2010)

Assays:
Assay type in all cases: in vivo
[1] = tested on: MCF-7 human breast adenocarcinoma xenograft; test: MCF-7 human breast adenocarcinoma xenograft model, anti-tumor activity and tolerability; details: for anti-tumor activity: FIG. 6 experiment, dose not stated
Excerpt: A+B, the following formulae can be applied: synergy−(AB)/C<(A/C)×B/C), additive−(AB)/C=(A/C)×(B/C) and antagonistic−(AB)/C>(A/C)×(B/C). […] For example if, the triple combination of A+B+C is to be compared to the activity of the three agents given alone then taking D to be the activity of the vehicle controls the formula defining synergy would be (ABC)/D<(A/D)×(B/D)×(C/D).

[2] = tested on: MDA-MB-231 human breast adenocarcinoma xenograft; test: MDA-MB-231 human breast adenocarcinoma xenograft model, anti-tumor activity and tolerability; details: FIG. 1
Experimental: The effect of 5,6-dimethylxanthenone-4-acetic acid (Compound A) and 2-methyl-2-[4-(3-methyl-2-oxo-8-quinolin-3-yl-2,3-dihydro-imidazo[4,5-c]quinolin-1-yl)-phenyl]-propionitrile (Compound B) are evaluated for their anti-tumor activity using the MDA-MB-231 human breast adenocarcinoma xenograft model.
(§1) Interactions of combinations can be approximated using a combination index presented by Clark (Breast Cancer Research and Treatment 46, 255-278 (1997)). Taking A to be the activity (T/C) of compound A given alone; B to be the activity of compound B given alone; C the activity in the vehicle controls and AB to be the activity in the combination. A+B, the following formulae can be applied: synergy−(AB)/C<(A/C)×B/C), additive−(AB)/C=(A/C)×(B/C) and antagonistic−(AB)/C>(A/C)×(B/C). […] For example if, the triple combination of A+B+C is to be compared to the activity of the three agents given alone then taking D to be the activity of the vehicle controls the formula defining synergy would be (ABC)/D<(A/D)×(B/D)×(C/D).

[3] = tested on: BT-474 human breast ductal carcinoma xenograft; test: BT-474 human breast ductal carcinoma xenograft model, anti-tumor activity and tolerability; details: FIG. 7; Compound A 20 mg/kg intravenously on days 1, 5 and 9
Excerpt: as §1

[4] = tested on: A549 human non-small cell lung carcinoma xenograft; test: A549 human non-small cell lung carcinoma xenograft model, anti-tumor activity and tolerability
Excerpt: as §1
The effects of Compound A and Compound B are evaluated for their anti-tumor activity using the A549 human non-small cell lung carcinoma xenograft model.
The effects of 5,6-dimethylxanthenone-4-acetic acid (Compound A) and 4-amino-5-fluoro-3-[5-(4-methylpiperazin-1-yl)-1H-benzimidazol-2-yl]quinolin-2(1H)-one (Compound C) are evaluated for their anti-tumor activity using the A549 human non-small cell lung carcinoma xenograft model.
The effects of 5,6-dimethylxanthenone-4-acetic acid (Compound A) and everolimus are evaluated for their anti-tumor activity using the A549 human non-small cell lung carcinoma xenograft model.
The effect of 5,6-dimethylxanthenone-4-acetic acid (Compound A) and patupilone are evaluated for their anti-tumor activity using the A549 human non-small cell lung carcinoma xenograft model.

Compound: Cc1ccc2c(=O)c3cccc(CC(=O)O)c3oc2c1C [Compound A, 5,6-dimethylxanthenone-4-acetic acid]
- anti-tumor activity (tumor growth) ([1]; FIG. 6, Compound A 20 mg/kg intravenously on days 1, 5 and 9): inhibition of tumor growth
- anti-tumor activity (tumor growth) ([2]; Compound A 18.6 mg/kg intravenously on days 1, 5 and 9): inhibition of tumor growth
- anti-tumor activity (tumor growth) [3]: inhibition of tumor growth
- anti-tumor activity (tumor growth) ([4]; in vivo, ip, 15 mg/kg): inhibition of tumor growth

Compound: Cn1c(=O)n(-c2ccc(C(C)(C)C#N)cc2)c2c3cc(-c4cnc5ccccc5c4)ccc3ncc21 [Compound B, 2-methyl-2-[4-(3-methyl-2-oxo-8-quinolin-3-yl-2,3-dihydro-imidazo[4,5-c]quinolin-1-yl)-phenyl]-propionitrile]
- anti-tumor activity (tumor growth) ([2]; Compound B alone, several dose levels): dose-dependent inhibition of tumor growth
- anti-tumor activity ([4]; FIG. 2, Compound B alone, 20 mg/kg): shows activity

Compound: CN1CCN(c2ccc3[nH]c(-c4c(N)c5c(F)cccc5[nH]c4=O)nc3c2)CC1 [Compound C, 4-amino-5-fluoro-3-[5-(4-methylpiperazin-1-yl)-1H-benzimidazol-2-yl]quinolin-2(1H)-one]
- anti-tumor activity ([4]; in vivo): dose-dependent activity

Compound: CC(=O)O[C@@]12CO[C@@H]1C[C@H](O)[C@@]1(C)C(=O)[C@H](O)C3=C(C)[C@@H](OC(=O)[C@H](O)[C@@H](NC(=O)OC(C)(C)C)c4ccccc4)C[C@@](O)([C@@H](OC(=O)c4ccccc4)[C@H]21)C3(C)C [docetaxel, reference compound]
- anti-tumor activity [1]: inhibition of tumor growth

Compound: C/C(=C\c1csc(C)n1)[C@@H]1C[C@@H]2O[C@]2(C)CCC[C@H](C)[C@H](O)[C@@H](C)C(=O)C(C)(C)[C@@H](O)CC(=O)O1 [patupilone, (1S,3S,7S,10R,11S,12S,16R,1′E)-7,11-dihydroxy-8,8,10,12,16-pentamethyl-3-[methyl-2-(2-methylthiazol-4-yl)-vinyl]-4,17-dioxabicyclo[14.1.0]heptadecane-5,9-dione, reference compound]
- anti-tumor activity (tumor growth) ([4]; FIG. 5, patupilone 2 mg/kg intravenously): inhibition of tumor growth

Compound: bevacizumab: monoclonal antibody, marketed as AVASTIN
- anti-tumor activity [1]: no anti-tumor activity
